Experimental data: paper PMC6526958 (Journal of medicinal chemistry, 2019)
“Also recorded” adds a separate entry of the source.

Assays:
[1] = target: T1, recombinant soluble rat CD73 (Rattus norvegicus, UniProt P21588); experiment: radiometric CD73 assay with [2,8-3H]AMP, recombinant soluble rat CD73; format: biochemical; settings: for fold less active than AOPCP: rat CD73 Ki relative to AOPCP
T1 sequence (P21588 29-551 limits assumed): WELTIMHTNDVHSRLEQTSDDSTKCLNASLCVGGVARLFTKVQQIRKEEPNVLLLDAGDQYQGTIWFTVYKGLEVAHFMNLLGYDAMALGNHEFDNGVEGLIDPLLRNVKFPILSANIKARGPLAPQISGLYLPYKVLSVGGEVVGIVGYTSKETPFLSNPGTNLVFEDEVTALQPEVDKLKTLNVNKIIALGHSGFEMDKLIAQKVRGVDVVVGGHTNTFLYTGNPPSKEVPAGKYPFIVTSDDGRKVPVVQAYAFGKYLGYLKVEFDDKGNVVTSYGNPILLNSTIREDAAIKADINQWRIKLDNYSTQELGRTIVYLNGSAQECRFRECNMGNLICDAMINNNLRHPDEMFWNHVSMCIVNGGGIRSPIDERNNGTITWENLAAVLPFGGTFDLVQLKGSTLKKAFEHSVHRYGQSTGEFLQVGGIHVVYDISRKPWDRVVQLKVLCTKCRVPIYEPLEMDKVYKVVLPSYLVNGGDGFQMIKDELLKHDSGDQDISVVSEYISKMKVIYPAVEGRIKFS

[2] = tested on: recombinant soluble human CD73; experiment: radiometric CD73 assay with [2,8-3H]AMP, recombinant soluble human CD73; format: biochemical; settings: human versus rat CD73
[3] = target: T2, recombinant soluble human CD73 (Homo sapiens, UniProt P21589); experiment: as above; format: biochemical
T2 sequence (P21589 28-549): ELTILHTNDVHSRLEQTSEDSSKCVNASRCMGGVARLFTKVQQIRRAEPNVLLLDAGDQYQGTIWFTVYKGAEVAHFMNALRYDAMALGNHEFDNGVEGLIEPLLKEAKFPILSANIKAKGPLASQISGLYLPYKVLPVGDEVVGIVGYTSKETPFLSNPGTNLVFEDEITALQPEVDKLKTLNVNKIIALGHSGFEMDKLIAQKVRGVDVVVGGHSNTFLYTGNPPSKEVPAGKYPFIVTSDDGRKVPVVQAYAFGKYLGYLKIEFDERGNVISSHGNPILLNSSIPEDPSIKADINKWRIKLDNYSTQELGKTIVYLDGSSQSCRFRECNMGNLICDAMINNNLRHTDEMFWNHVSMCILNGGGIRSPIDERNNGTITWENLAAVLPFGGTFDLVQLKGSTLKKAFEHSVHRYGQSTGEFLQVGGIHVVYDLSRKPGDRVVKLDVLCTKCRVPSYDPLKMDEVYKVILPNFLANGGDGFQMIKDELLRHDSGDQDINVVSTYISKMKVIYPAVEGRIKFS

[4] = target: T3, membrane-bound CD73 (MDA-MB-231 membrane preparation) (Homo sapiens, UniProt P21589); experiment: radiometric CD73 assay, membrane preparations of MDA-MB-231 cells; format: biochemical
T3 sequence (P21589 27-574): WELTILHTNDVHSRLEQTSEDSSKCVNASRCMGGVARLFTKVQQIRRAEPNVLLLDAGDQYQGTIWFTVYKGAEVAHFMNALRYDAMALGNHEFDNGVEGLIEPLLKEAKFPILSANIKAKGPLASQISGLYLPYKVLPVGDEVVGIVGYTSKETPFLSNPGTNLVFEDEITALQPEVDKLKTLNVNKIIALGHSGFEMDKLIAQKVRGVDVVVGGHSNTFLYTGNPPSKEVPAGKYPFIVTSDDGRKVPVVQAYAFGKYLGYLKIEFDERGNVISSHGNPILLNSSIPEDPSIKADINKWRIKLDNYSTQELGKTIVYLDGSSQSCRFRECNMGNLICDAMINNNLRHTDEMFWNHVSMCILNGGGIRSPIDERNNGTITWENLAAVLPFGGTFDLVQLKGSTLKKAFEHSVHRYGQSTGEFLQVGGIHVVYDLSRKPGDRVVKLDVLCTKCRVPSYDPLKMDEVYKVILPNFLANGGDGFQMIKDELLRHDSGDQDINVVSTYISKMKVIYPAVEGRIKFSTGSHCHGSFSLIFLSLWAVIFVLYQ

[5] = target: T4, human P2Y14 receptor (Homo sapiens, UniProt Q15391); experiment: fluorescent antagonist binding competition; settings: 9h up to 3.0 µM
T4 sequence (Q15391 1-338): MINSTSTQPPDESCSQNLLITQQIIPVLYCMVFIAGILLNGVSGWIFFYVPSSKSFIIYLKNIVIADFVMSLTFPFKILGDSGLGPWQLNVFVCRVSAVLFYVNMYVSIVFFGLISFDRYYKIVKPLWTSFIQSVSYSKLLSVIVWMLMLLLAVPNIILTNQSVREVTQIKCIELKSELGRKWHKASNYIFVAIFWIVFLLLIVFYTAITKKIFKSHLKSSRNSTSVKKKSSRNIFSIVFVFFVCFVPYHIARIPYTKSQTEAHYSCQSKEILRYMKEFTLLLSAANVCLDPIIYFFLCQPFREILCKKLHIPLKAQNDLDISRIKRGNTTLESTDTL

[6] = target: human P2Y6 receptor (Homo sapiens, UniProt Q15077); format: cell-based; settings: 9h up to 3.0 µM
[7] = target: T5, eN/CD73 in human tonsils (Homo sapiens, UniProt P21589); experiment: in situ ecto-5′-nucleotidase; format: biochemical; settings: human tonsil cryosections
T5 sequence (P21589 27-574): T3 sequence (P21589 27-574)

[8] = tested on: CD73; experiment: CD73 enzyme inhibition assay, control for the triethylammonium salt form; format: biochemical; settings: 500 µM
[9] = stability in aqueous solution; format: physicochemical; settings: room temperature

Chain of human P2Y6 receptor (Q15077 whole entry): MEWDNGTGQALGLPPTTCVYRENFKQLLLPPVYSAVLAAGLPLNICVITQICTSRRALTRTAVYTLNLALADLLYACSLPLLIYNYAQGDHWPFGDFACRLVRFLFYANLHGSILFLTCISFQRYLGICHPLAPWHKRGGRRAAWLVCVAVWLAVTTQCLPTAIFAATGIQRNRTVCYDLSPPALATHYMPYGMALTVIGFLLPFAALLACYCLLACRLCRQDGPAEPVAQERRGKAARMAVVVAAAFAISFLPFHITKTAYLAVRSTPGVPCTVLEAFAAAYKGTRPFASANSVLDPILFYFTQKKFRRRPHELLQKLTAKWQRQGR

For `Nc1ncnc2c1ncn2[C@@H]1O[C@H](COP(=O)(O)O)[C@@H](O)[C@H]1O` [AMP, adenosine 5′-monophosphate], the Km ([1]; read-out: Km, rat CD73, substrate AMP) was 53 ± 4.1 µM.

In the case of `CCCn1c(=O)ccn([C@@H]2O[C@H](COP(=O)(O)CP(=O)(O)O)[C@@H](O)[C@H]2O)c1=O` [4d, 3-Propyluridine-5′-O-[(phosphonomethyl)phosphonic acid]], the “CD73 inhibitory activity (in words)” value ([1]; rat CD73) is reported as “inactive”.

In the case of `CCOP(=O)(O)OP(=O)(O)OC[C@H]1O[C@@H](n2ccc(=O)[nH]c2=S)[C@H](O)[C@@H]1O` [compound 12], the “CD73 inhibitory activity (in words)” value ([1]; rat CD73) is reported as “inactive”.

For `Nc1ncnc2c1ccn2[C@@H]1O[C@H](COP(=O)(O)CP(=O)(O)O)[C@@H](O)[C@H]1O` [2g, 7-Deazaadenosine-5′-O-[(phosphonomethyl)phosphonic acid]], the “fold higher CD73 inhibitory activity compared to AOPCP” value ([1]; rat CD73) was 2 fold.

In the case of `O=c1ccn([C@@H]2O[C@H](COP(=O)(O)CP(=O)(O)O)[C@@H](O)[C@H]2O)c(=O)n1Cc1ccccc1` [4e, 3-Benzyluridine-5′-O-[(phosphonomethyl)phosphonic acid]], the “CD73 inhibitory activity (in words)” value ([1]; rat CD73) is reported as “inactive”.

With `Nc1ccnc2c1ncn2[C@@H]1O[C@H](COP(=O)(O)CP(=O)(O)O)[C@@H](O)[C@H]1O` [2e, 1-Deazaadenosine-5′-O-[(phosphonomethyl)phosphonic acid]] the “CD73 inhibitory activity (in words)” value ([1]; rat CD73) was “inactive”.

For `O=c1[nH]/c(=N/OCc2ccccc2)c(F)cn1[C@@H]1O[C@H](COP(=O)(O)CP(=O)(O)O)[C@@H](O)[C@H]1O` [9g, N^4-[O-(4-Benzyloxy)]-5-fluoro-cytidine-5′-O-[(phosphonomethyl)phosphonic acid]], the “fold more potent at human CD73 as compared to the rat enzyme” value (from here on “fold more potent at human CD73”) [2] was 5 fold.

For `Nc1ccn([C@@H]2O[C@H](COP(=O)(O)CP(=O)(O)O)[C@@H](O)[C@H]2O)c(=O)n1` [7a, Cytidine-5′-O-[(phosphonomethyl)phosphonic acid]], the “fold less active than AOPCP” value [1] was 5 fold.

In the case of `CCn1c(=O)ccn([C@@H]2O[C@H](COP(=O)(O)CP(=O)(O)O)[C@@H](O)[C@H]2O)c1=O` [4c, 3-Ethyluridine-5′-O-[(phosphonomethyl)phosphonic acid]], the “CD73 inhibitory activity (in words)” value ([1]; rat CD73) is reported as “inactive”.

With `Cc1cn([C@@H]2O[C@H](COP(=O)(O)CCP(=O)(O)O)[C@@H](O)[C@H]2O)c(=O)[nH]c1=O` [4x, 5-Methyluridine-5′-O-[(phosphonoethyl)phosphonic acid]] the “CD73 inhibitory activity (in words)” value ([1]; rat CD73) was “complete loss of CD73 inhibition”.

In the case of `CO[C@@H]1[C@H](O)[C@@H](COP(=O)(O)CP(=O)(O)O)O[C@H]1n1cc(C)c(=O)[nH]c1=O` [4h, 2′-O-Methyl-5-methyluridine-5′-O-[(phosphonomethyl)phosphonic acid]], the “CD73 inhibitory activity (in words)” value ([1]; rat CD73) is reported as “inactive”.

In the case of `O=c1[nH]/c(=N/OCc2ccc3ccccc3c2)ccn1[C@@H]1O[C@H](COP(=O)(O)CP(=O)(O)O)[C@@H](O)[C@H]1O` [9e, N^4-[O-(Naphthalen-2-ylmethoxy)]-cytidine-5′-O-[(phosphonomethyl)phosphonic acid]], the “fold more potent at human CD73” value [2] is reported as 2 to 3 fold.

With `O=c1[nH]c(=NOCc2ccc(C(F)(F)F)cc2)ccn1[C@@H]1O[C@H](COP(=O)(O)CP(=O)(O)O)[C@@H](O)[C@H]1O` [9d, N^4-[O-(4-Trifluoromethylbenzyloxy)]-cytidine-5′-O-[(phosphonomethyl)phosphonic acid]] the Ki [3] was 14 ± 1.6 nM, the “fold more potent at human CD73” value [2] was 2 to 3 fold and the Ki [1] was 30.3 ± 4.2 nM. The Ki [4] was 10.1 ± 1.4 nM.

In the case of `O=c1ccn([C@@]23C[C@H]2[C@H](COP(=O)(O)CP(=O)(O)O)[C@@H](O)[C@H]3O)c(=O)[nH]1` [compound 11, (S)-Methanocarbauridine-5′-O-[(phosphonomethyl)phosphonic acid]], the “CD73 inhibitory activity (in words)” value ([1]; rat CD73) is reported as “inactive”.

In the case of `Cn1c(=O)n([C@@H]2O[C@H](COP(=O)(O)CP(=O)(O)O)[C@@H](O)[C@H]2O)cc/c1=N/OCc1ccccc1` [9h, N^4-[O-(4-Benzyloxy)]-3-methyl-cytidine-5′-O-[(phosphonomethyl)phosphonic acid]], the “potency at P2Y14 receptor (in words)” value [5] is reported as “completely inactive”, the “potency at P2Y6 receptor (in words)” value [6] is reported as “completely inactive” and the “inhibition of CD73 catalytic (AMPase) activity in situ” value ([7]; 1, 10 and 100 nM, 100 µM AMP) is reported as “inhibited catalytic activity of CD73 in a concentration-dependent manner, in situ more potently than AOPCP”. For the same compound, the “reversibility of CD73 inhibition” value [7] was “highly reversible CD73 inhibitor”.

With `O=c1[nH]c(=O)n([C@@H]2O[C@H](COP(=O)(O)CP(=O)(O)O)[C@@H](O)[C@H]2O)cc1F` [4l, 5-Fluorouridine-5′-O-[(phosphonomethyl)phosphonic acid]] the “fold more potent at human CD73” value [2] was 2 to 3 fold.

In the case of `CCN(CC)CC.Cl` [triethylammonium chloride], the “reduction of CD73 enzymatic activity” value [8] is reported as “no reduction of enzymatic activity was detected”.

In the case of `Nc1nccc2c1ncn2[C@@H]1O[C@H](COP(=O)(O)CP(=O)(O)O)[C@@H](O)[C@H]1O` [2f, 3-Deazaadenosine-5′-O-[(phosphonomethyl)phosphonic acid]], the “CD73 inhibitory activity (in words)” value ([1]; rat CD73) is reported as “inactive”.

In the case of `O=c1cc(O)ccn1[C@@H]1O[C@H](COP(=O)(O)CP(=O)(O)O)[C@@H](O)[C@H]1O` [compound 10, 3-Deazauridine-5′-O-[(phosphonomethyl)phosphonic acid]], the “CD73 inhibitory activity (in words)” value ([1]; rat CD73) is reported as “inactive”.

With `O=c1ccn([C@@H]2O[C@H](COP(=O)(O)CCP(=O)(O)O)[C@@H](O)[C@H]2O)c(=O)[nH]1` [4w, Uridine-5′-O-[(phosphonoethyl)phosphonic acid]] the “CD73 inhibitory activity (in words)” value ([1]; rat CD73) was “complete loss of CD73 inhibition”.

For `O=c1ccn([C@@H]2O[C@H](COP(=O)(O)CP(=O)(O)O)[C@@H](O)[C@H]2O)c(=O)[nH]1` [4a, Uridine-5′-O-[(phosphonomethyl)phosphonic acid]], the “fold less active than AOPCP” value [1] was 11 fold.

For `O=c1ccn([C@@H]2O[C@H](COP(=O)(O)CP(=O)(O)O)[C@@H](O)[C@H]2O)c(=S)[nH]1` [4y, 2-Thiouridine-5′-O-[(phosphonomethyl)phosphonic acid]], the “CD73 inhibitory activity (in words)” value ([1]; rat CD73) was “not tolerated”.

For `O=C(Nc1ccn([C@@H]2O[C@H](COP(=O)(O)CP(=O)(O)O)[C@@H](O)[C@H]2O)c(=O)n1)c1ccccc1` [7f, 4-Benzoylcytidine-5′-O-[(phosphonomethyl)phosphonic acid]], the “fold more potent at human CD73” value [2] was 2 to 3 fold, the “potency at P2Y14 receptor (in words)” value [5] was “potencies in the micromolar range” and the “stability in aqueous solution” value [9] was “gradual decomposition when left at room temperature over several weeks in aqueous solution to UOPCP (4a) and COPCP (7a); also recorded: decomposition of compound 7f to UOPCP”. For the same compound, the “potency at P2Y6 receptor (in words)” value [6] was “potencies in the micromolar range”.
